Assay [1] relates to bone marrow-derived dendritic cells (BMDCs). The assay is described as follows: Degree of antigen presentation in BMDCs treated with mRNA and toll-like receptor agonist (anti-OVA SIINFEKL antibodies). The class given is cell-based, mouse. Conditions: compared to mRNA only. On the procedure:
To confirm the efficacy of the composition for an mRNA vaccine of the present invention, an experiment was performed using OVA mRNA which is widely used as an mRNA vaccine. In further detail, first, CleanCap® OVA mRNA (5 moU, L-7210, TriLink Biotechnologies) and Opti-MEM™ (Reduced Serum Medium, ThermoFisher Scientific) were mixed at a volume ratio of 1:49, and Lipofectamine (Lipofectamine™ 2000 Transfection Reagent, ThermoFisher Scientific) and Opti-MEM® were mixed at a volume ratio of 2:23 as a delivery system, and then the above mixtures were mixed again in a volume ratio of 1:1 and reacted for 5 minutes, thereby preparing an mRNA composition. As toll-like receptor agonists, a toll-like receptor 3 agonist, which is polyinosinic-polycytidylic acid (poly I:C, Sigma-Aldrich), a toll-like receptor 4 agonist, which is Lipopolysaccharide (LPS, Sigma-Aldrich), and a toll-like receptor 7 or 8 agonist which is resiquimod (Biorbyt), were used. Poly I:C was used after being dispersed in phosphate buffered saline (PBS) at a concentration of 0.8 mg/mL, LPS was used after being dispersed in PBS at a concentration of 0.3 μg/mL, R848 was first dissolved in dimethyl sulfoxide (DMSO) at a concentration of 20 mg/mL, and then the dissolved solution was dispersed in PBS to a concentration of 20 μg/mL and used. In the case of treatment with a single toll-like receptor agonist, poly I:C was treated at 40 μg/mL. LPS was treated at 30 ng/mL, or R848 was treated at […], and in the case of treatment with a combination of agonists, 2 μg/mL of poly I:C and 1 μg/mL of R848 were treated, or 2 ng/mL of LPS and 1 μg/mL of R848 were treated, and in both cases, mRNA was treated at 1 μg/mL.
To identify the efficacy of the composition for an mRNA vaccine of the present invention, as cells for experiments, bone marrow-derived dendritic cells (BMDCs), plasmacytoid dendritic cells (pDCs), and T cells isolated from the spleen of an ovalbumin-specific TCR-bearing mouse (OT-1 transgenic mouse: OT-1 mouse) were used. BMDCs and pDCs were obtained from the bone marrow of a laboratory mouse, C57BL/6 (female, Orient Bio). In further detail, a 6-weeks-old mouse was euthanized, the femur and tibia were cut, and then a medium was flushed to extract internal materials. In addition, the extracted materials were treated with a red blood cell lysis buffer (BioLegend) to remove red blood cells, and used. For pDCs, 6-weeks-old C57BL/6 was euthanized, the femur and tibia were cut, and then a medium was flushed to extract internal materials. The extracted materials were then treated with a red blood cell lysis buffer (BioLegend) to remove red blood cells, and only pDCs were isolated using a pDC isolation kit (Plasmacytoid Dendritic Cell Isolation Kit, mouse, MACS Miltenyi Biotec) to be used in the experiments. Spleen cells were used by extracting the spleen from an OT-1 laboratory mouse, physically grinding the spleen to prepare single cells, washing the cells with PBS, and removing red blood cells with a red blood cell lysis buffer. The obtained cells were then seeded in a culture plate (Corning petri dish) with a size of 100 mm×25 mm to 2×10^6 cells, and cultured under conditions of 5% CO2 and 37° C. As a culture medium, a complete RPMI 1640 medium(Gibco) to which 20 ng/mL of a granulocyte-macrophage colony-stimulating factor (GM-CSF, Recombinant Mouse GM-CSF Protein, R&D Systems) was added, was used. […]

The subject of assay [2] is T cells isolated from the spleen of an OT-1 mouse. Nature of the assay: OT-1 T cell activation in co-culture of treated BMDCs and T cells. The class given is cell-based. Conditions: BMDC/T cell co-culture.
For assay [3], the system named is bone marrow-derived dendritic cells (BMDCs). The assay is described as follows: Cytokine secretion by BMDCs (ELISA: IL-12p70, IL-10, type 1 IFN). The class given is cell-based, mouse. On the procedure: To confirm the efficacy of the composition for an mRNA vaccine of the present invention, an experiment was performed using OVA mRNA which is widely used as an mRNA vaccine. In further detail, first, CleanCap® OVA mRNA (5 moU, L-7210, TriLink Biotechnologies) and Opti-MEM™ (Reduced Serum Medium, ThermoFisher Scientific) were mixed at a volume ratio of 1:49, and Lipofectamine (Lipofectamine™ 2000 Transfection Reagent, ThermoFisher Scientific) and Opti-MEM® were mixed at a volume ratio of 2:23 as a delivery system, and then the above mixtures were mixed again in a volume ratio of 1:1 and reacted for 5 minutes, thereby preparing an mRNA composition. As toll-like receptor agonists, a toll-like receptor 3 agonist, which is polyinosinic-polycytidylic acid (poly I:C, Sigma-Aldrich), a toll-like receptor 4 agonist, which is Lipopolysaccharide (LPS, Sigma-Aldrich), and a toll-like receptor 7 or 8 agonist which is resiquimod (Biorbyt), were used. […]
To confirm the effect of a composition for an mRNA vaccine including a single toll-like receptor in BMDCs, first, BMDCs were treated with a toll-like receptor agonist and modified-mRNA (5-methoxyuridine modified OVA mRNA, TriLink) in the same manner as in Example 12.1, and an antigen presentation degree, amounts of cell surface molecules and levels of cytokines such as interleukin-12p70 (IL-12p70) and interferon were measured. […]
For orientation: ELISA stands for enzyme-linked immunosorbent assay.

Setting [4] is: agonist and mRNA at the same time (0h).
[5] abbreviates: agonist four hours after mRNA (4h).
Where [6] appears, read: agonist and mRNA at the same time (0h), compared to mRNA alone.

Entries after “also recorded” stand apart in the source; their conditions may differ.

Regarding Lipopolysaccharide [LPS], the results for the “degree of antigen presentation” value in assay [1] (setting [4]), in assay [1] (agonist eight hours after mRNA (8h)) and in assay [1] (setting [5]) were “reduced”, “increased” and “increased”, respectively.
As to “polyinosinic-polycytidylic acid [poly I:C]”, the “degree of antigen presentation” value in assay [1] (setting [4]) is reported as “remarkably reduced”; in assay [1] (setting [5]), “significantly increased”. Moreover, the “amount of IFN-γ+ T cells” value in assay [2] (agonist 4h after mRNA) is “markedly increased”; in assay [2] (agonist 8h after mRNA), “markedly increased”; in assay [2] (setting [6]), “remarkably reduced”. For the same substance, the “level of IL-2” value is on record as “highest; also recorded: markedly increased” in assay [2] (agonist 4h after mRNA), “markedly increased” in assay [2] (agonist 8h after mRNA) and “remarkably reduced” in assay [2] (setting [6]). In addition, the “level of secreted IFN-γ” value in assay [2] (agonist 4h after mRNA) was “markedly increased”; in assay [2] (agonist 8h after mRNA), “markedly increased”; in assay [2] (setting [6]), “remarkably reduced”. For the same substance, the “secretion of type 1 IFN” value in assay [3] (setting [4]) is “markedly increased”; in assay [3] (setting [5]), “reduced”.
